Source: paper PMC9282638, “A Suite of Activity-Based Probes To Dissect the KLK Activome in Drug-Resistant Prostate Cancer” (Journal of the American Chemical Society, 2021)

Tested on: LNCaP-K14 cells
Test: Transwell cell migration assay
Assay type: cell-based, human
Conditions: 1 μM ABP, 24 h; KLK14 expression induced with Dox, 10 nM DHT
Procedure: Figure 6 Dissecting the KLK activome in LNCaP cells. (A) Structures of fluorescent ABPs 42, 20, and 43 for KLK2, KLK3, and KLK14, respectively. (B) KLK activity profiling by in-gel fluorescence of conditioned media obtained from LNCaP-WT, LNCaP-mK14, and LNCaP-K14 cells following treatment with DHT (10 nM), Dox (100 ng/mL), and the appropriate biotinylated ABP using fluorescent ABPs 20, 42 and 43. See Figure S26 for blot and gel quantification. (C) Assessment of KLK activity inhibition on LNCaP cell migration. LNCaP-K14 cells were cultured in serum-free RPMI media supplemented with 10 nM DHT ± Dox (100 ng/mL) for 24 h. Cells were added to transwell inserts (100 000 cells in 100 μL of serum-free RPMI), and after 4 h the appropriate ABP was added. Cultures were incubated for a further 24 h before the number of migrating cells was quantified. […]
each library member was 50 μM and the total reaction volume was 50 μL. The excitation wavelength was 355 nm, and the emission wavelength was 460 nm. An amount of 1 μL of each HyCoSuL peptide was added into a well in a 96-well plate containing 24 μL of KLK buffer.
Next, 25 μL of the active KLK enzyme was added to each well and substrate hydrolysis was recorded in kinetic mode at RT for at least 10 min. The linear portion of each progress curve was used to calculate relative fluorescence units per second (RFUs-1). […] Specificity was calculated by normalizing RFUs-1 to the highest value, which was set at 100 %. […]
Determination of kcat/KM: The KLK2 substrate and KLK14 substrate were serially diluted in the appropriate KLK assay buffer and 25 μL was added to the wells of a 96-well plate. Next, 25 μL of KLK2 (1.5 nM) or KLK14 (75 pM) was added to each well containing the substrate and the enzyme-substrate reaction was monitored for at least 10 min. The linear portion of each progress curve was used to calculate relative fluorescence units per second (RFUs-1).
KM, kcat, and kcat/KM parameters were determined by nonlinear regression in GraphPad Prism 5 (GraphPad Software). […]

SMILES | effect on number of migrating cells
CCC[C@H](NC(=O)[C@H](CCC(N)=O)NC(=O)[C@H](CC(N)=O)NC(=O)CCCCCNC(=O)CCCC[C@@H]1SC[C@@H]2NC(=O)N[C@@H]21)C(=O)NC(c1ccc(C(N)=O)cc1)P(=O)(Oc1ccccc1)Oc1ccccc1 (stereo partly drawn) [compound 20] | no significant effect
CC(C)(C)C(NC(=O)CCCCCNC(=O)CCCCC1SCC2NC(=O)NC21)C(=O)NC(CCN)C(=O)NC(Cc1ccc(O)cc1)C(=O)NC(c1ccc(NC(=N)N)cc1)P(=O)(Oc1ccccc1)Oc1ccccc1 (stereo not drawn) [compound 31, Tle-Dab-Tyr-Arg] | no significant effect
CCC(NC(=O)C(CCN)NC(=O)C(Cc1ccc2ccccc2c1)NC(=O)CCCCCNC(=O)CCCCC1SCC2NC(=O)NC21)C(=O)NC(c1ccc(NC(=N)N)cc1)P(=O)(Oc1ccccc1)Oc1ccccc1 (stereo not drawn) [compound 39, 2Nal-Dab-Abu-Arg] | nullified
